This note sets out measurements from US8791141B2, “Organic compounds” (Novartis AG, priority 2008, dated 2014).

The term IC50 denotes the concentration needed to halve the response being measured.

The structures appear in SMILES notation.

Assay [1] deals with T1, CYP11B1 (steroid 11-hydroxylase) (Homo sapiens, UniProt P15538).
T1 construct: the NCI-H295R cells have CYP11B2 (aldosterone synthase) and CYP11B1 (steroid 11-hydroxylase); host or cells: NCI-H295R
T1 sequence (P15538 25-503): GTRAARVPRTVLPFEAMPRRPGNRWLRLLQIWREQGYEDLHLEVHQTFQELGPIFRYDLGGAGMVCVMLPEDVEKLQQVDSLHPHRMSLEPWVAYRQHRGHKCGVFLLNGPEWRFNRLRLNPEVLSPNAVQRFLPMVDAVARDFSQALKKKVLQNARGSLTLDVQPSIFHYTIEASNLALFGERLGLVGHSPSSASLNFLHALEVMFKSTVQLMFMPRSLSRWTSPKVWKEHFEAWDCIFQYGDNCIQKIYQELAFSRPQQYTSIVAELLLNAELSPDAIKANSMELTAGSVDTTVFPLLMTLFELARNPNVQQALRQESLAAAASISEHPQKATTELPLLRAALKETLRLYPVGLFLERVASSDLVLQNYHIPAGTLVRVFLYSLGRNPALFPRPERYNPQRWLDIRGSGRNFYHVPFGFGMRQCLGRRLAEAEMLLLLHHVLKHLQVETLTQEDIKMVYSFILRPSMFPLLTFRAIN
Kind of assay: Inhibition of cortisol secretion in NCI-H295R cells. It is filed as cell-based. The note with it: human adrenocortical carcinoma NCI-H295R cells, 24 hours with cell stimulant. From the text: (§1) The activities of a compound according to the present invention can be assessed by the following in vitro method well-described in the art.
(§2) In particular, the inhibition of aldosterone and cortisol secretion in vitro can be determined by the following assay.
(§3) The cell line NCI-H295R was originally isolated from an adrenocortical carcinoma and has been characterized in the literature through the stimulable secretion of steroid hormones and the presence of the enzymes essential for steroidogenesis. The cells show the physiological property of zonally undifferentiated human foetal adrenocortical cells which, however, have the capacity to produce the steroid hormones which are formed in the three phenotypically distinguishable zones in the adult adrenal cortex. Thus, the NCI-H295R cells have CYP11B2 (aldosterone synthase) and CYP11B1 (steroid 11-hydroxylase).
(§4) The human adrenocortical carcinoma NCI-H295R cell line is obtained from American Type Culture Collection (Manassas, Va.). Insulin/transferrin/selenium (ITS)-A supplement (100×), DMEM/F-12, antibiotic/antimycotic (100×), and fetal calf serum (FCS) are purchased from Invitrogen (Carlsbad, Calif.). Anti-mouse PVT scintillation proximity assay (SPA) beads and NBS 96-well plates are obtained from Amersham (Piscataway, N.J.) and Corning (Acton, Mass.), respectively. Clear bottom 96-well flat bottom plates are purchased from Costar (Corning, N.Y.). Aldosterone and angiotensin (Ang II) are purchased from Sigma (St. Louis, Mo.). D[1,2,6,7-3H(N)]aldosterone and [1,2,6,7-3H(N)]cortisol are acquired from PerkinElmer (Boston, Mass.). Nu-serum is a product of BD Biosciences (Franklin Lakes, N.J.).
(§5) For in vitro measurement of aldosterone and cortisol activity, human adrenocortical carcinoma NCI-H295R cells are seeded in NBS 96-well plates at a density of 25,000 cells/well in 100 μL of a growth medium containing DMEM/F12 supplemented with 10% FCS, 2.5% Nu-serum, 1 μg ITS/ml, and 1× antibiotic/antimycotic. The medium is changed after culturing for 3 days at 37° C. under an atmosphere of 5% CO2/95% air. On the following day, cells are rinsed with 100 μL of DMEM/F12 and incubated in quadruplicate wells at 37° C. for 24 hours with 100 μL of treatment medium containing a cell stimulant and a compound at different concentrations. […] Cell stimulants which can be used are angiotensin-II (1 micromolar), potassium ions (16 millimolar), forskolin (10 micromolar) or a combination of two stimulants. At the end of incubation, the excretion of aldosterone and cortisol into the culture medium can be detected and quantified by commercially available, specific monoclonal antibodies in radioimmunoassays in accordance with the manufacturer's instructions.
(§6) Measurement of aldosterone can also be performed using a 96-well plate format. Each test sample is incubated with 0.02 μCi of D[1,2,6,7-3H(N)]aldosterone and 0.3 μg of anti-aldosterone antibody in phosphate-buffered saline (PBS) containing 0.1% Triton X-100, 0.1% bovine serum albumin, and 12% glycerol in a total volume of 200 μL at room temperature for 1 hour. Anti-mouse PVT SPA beads (50 μL) are then added to each well and incubated overnight at room temperature prior to counting in a Microbeta plate counter. The amount of aldosterone in each sample is calculated by comparing with a standard curve generated using known quantities of the hormone. Measurement of cortisol can be performed in a manner similar to that of aldosterone, except that [1,2,6,7-3H(N)]cortisol is used.
(§7) Inhibition of the release of a steroid can be used as a measure of the respective enzyme inhibition by the added test compounds. The dose-dependent inhibition of enzymatic activity by a compound is calculated by means of an inhibition plot which is characterized by an IC50. […] The inhibition plot is calculated by fitting a 4-parameter logistic function to the raw data points using the least squares method.

The target of assay [2] is T2, CYP11B2 (aldosterone synthase) (Homo sapiens, UniProt P19099).
T2 construct: the NCI-H295R cells have CYP11B2 (aldosterone synthase) and CYP11B1 (steroid 11-hydroxylase); host or cells: NCI-H295R
T2 sequence (P19099 25-503): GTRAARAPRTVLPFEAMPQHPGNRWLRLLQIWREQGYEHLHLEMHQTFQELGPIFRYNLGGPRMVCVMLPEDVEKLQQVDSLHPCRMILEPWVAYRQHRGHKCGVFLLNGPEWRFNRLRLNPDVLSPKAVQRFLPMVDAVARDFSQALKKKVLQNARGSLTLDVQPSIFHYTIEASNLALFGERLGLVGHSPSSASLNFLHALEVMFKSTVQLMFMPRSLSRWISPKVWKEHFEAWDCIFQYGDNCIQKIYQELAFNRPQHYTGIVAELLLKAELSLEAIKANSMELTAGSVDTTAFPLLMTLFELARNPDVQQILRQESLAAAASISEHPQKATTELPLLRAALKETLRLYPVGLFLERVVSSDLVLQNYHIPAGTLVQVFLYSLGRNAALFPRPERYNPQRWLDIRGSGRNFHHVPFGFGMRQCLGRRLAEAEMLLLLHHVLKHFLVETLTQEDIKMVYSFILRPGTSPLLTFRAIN
The assay can be described thus: Inhibition of aldosterone secretion in NCI-H295R cells. It is filed as cell-based. The note with it: human adrenocortical carcinoma NCI-H295R cells, 24 hours with cell stimulant.
From the text: as §1, §2, §3, §4, §5, §6, §7

Consider `CCS(=O)(=O)Nc1cncc(-c2c(C)c3ccccc3n2C)c1` [Example 236, Ethanesulfonic acid [5-(1,3-dimethyl-1H-indol-2-yl)-pyridin-3-yl)-amide], for which the values for the half-inhibitory concentration (IC50) in assay [1] and in assay [2] were 1100 nM and 21 nM, respectively.

For `CCS(=O)(=O)NCc1cncc(-c2c(C)c3ccccc3n2C)c1` [Example 237, N-((5-(1,3-Dimethyl-1H-indol-2-yl)pyridin-3-yl)methyl)ethanesulfonamide], the IC50 was found to be 1610 nM in assay [1] and 5 nM in assay [2].

With `CCS(=O)(=O)Nc1cncc(-c2c(COC)c3ccc(Cl)cc3n2C)c1` [Example 238, Ethanesulfonic acid [5-(1-methyl-3-methoxymethyl-6-chloro-1H-indol-2-yl)-pyridin-3-yl)-amide], the half-inhibitory concentration (IC50) is over 1000 nM in assay [1] and 44 nM in assay [2].

Regarding `CCNS(=O)(=O)c1cncc(-c2cc3ccccc3n2C)c1` [Example 242, N-ethyl-5-(1-methyl-1H-indol-2-yl)pyridine-3-sulfonamide], the IC50 is over 1000 nM in assay [1] and 23 nM in assay [2].
